Reference: patent US8372823B2, “Tetracyclic inhibitors of fatty acid amide hydrolase” (The Scripps Research Institute, priority 2007, dated 2013)

What was measured:
Type in all cases: biochemical
[1] = molecular target: T1, purified recombinant rat FAAH (Rattus norvegicus, UniProt P97612); test: FAAH enzyme assay, Ki (Dixon plot), rat FAAH
T1 construct: made in house; host or cells: E. coli
T1 sequence (P97612 1-579): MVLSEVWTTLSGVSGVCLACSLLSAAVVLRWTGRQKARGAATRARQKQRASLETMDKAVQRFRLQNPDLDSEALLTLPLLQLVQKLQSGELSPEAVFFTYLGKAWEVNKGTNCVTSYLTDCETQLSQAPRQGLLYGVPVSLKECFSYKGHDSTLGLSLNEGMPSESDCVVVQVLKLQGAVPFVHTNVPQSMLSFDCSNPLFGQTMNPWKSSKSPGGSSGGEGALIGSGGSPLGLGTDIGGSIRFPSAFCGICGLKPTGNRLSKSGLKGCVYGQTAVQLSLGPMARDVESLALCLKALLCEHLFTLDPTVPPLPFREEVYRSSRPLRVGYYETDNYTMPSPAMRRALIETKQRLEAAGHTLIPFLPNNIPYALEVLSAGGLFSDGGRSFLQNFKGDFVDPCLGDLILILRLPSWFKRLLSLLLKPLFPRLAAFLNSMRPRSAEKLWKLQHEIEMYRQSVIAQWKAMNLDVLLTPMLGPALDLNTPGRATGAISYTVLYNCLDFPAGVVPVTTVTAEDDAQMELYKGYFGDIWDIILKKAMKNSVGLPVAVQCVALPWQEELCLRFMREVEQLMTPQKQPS

rat FAAH = molecular target: T2, rat FAAH (Rattus norvegicus, UniProt P97612); test: FAAH inhibition IC50, rat; conditions: inhibition at 3-5 test compound concentrations
T2 construct: made in house; host or cells: E. coli
T2 sequence (P97612 1-579): T1 sequence (P97612 1-579)
Experimental: (§1) Enzyme assays were performed at 20-23° C. with purified recombinant rat FAAH expressed in E. coli (Patricelli, M. P.; Lashuel, H. A.; et al. Biochemistry 1998, 37, 15177-15187) (unless indicated otherwise) or with solubilized COS-7 membrane extracts from cells transiently transfected with human FAAH cDNA (Giang, D. K.; Cravatt, B. F. Proc. Natl. Acad. Sci. U.S.A. 1997, 94, 2238-2242) (where specifically indicated) in a buffer of 125 mM Tris/1 mM EDTA/0.2% glycerol/0.02% Triton X-100/0.4 mM Hepes, pH 9.0 buffer (Patricelli, M. P.; Patterson, J. P.; et al. Bioorg. Med. Chem. Lett. 1998, 8, 613-618). […] NT=no data available.
(§2) IC50 values were determined from the inhibition observed at 3-5 different test compound concentrations (from three or more trials at each concentration) using the formula IC50=[I]/[K0/Ki)-1], where K0 is the control reaction rate without inhibitor and Ki is the rate with test compound at concentration [I] (Conde-Frieboes, K. et al. J. Am. Chem. Soc. 1996, 118, 5519-5525). NT=no data available.

FAAH = molecular target: T3, FAAH (Homo sapiens, UniProt O00519); test: FAAH inhibition IC50, human; parameters: expressed in transfected cells; host or cells: COS-7 (transient transfection), solubilized membrane extracts; conditions: inhibition at 3-5 test compound concentrations
T3 sequence (O00519 1-579): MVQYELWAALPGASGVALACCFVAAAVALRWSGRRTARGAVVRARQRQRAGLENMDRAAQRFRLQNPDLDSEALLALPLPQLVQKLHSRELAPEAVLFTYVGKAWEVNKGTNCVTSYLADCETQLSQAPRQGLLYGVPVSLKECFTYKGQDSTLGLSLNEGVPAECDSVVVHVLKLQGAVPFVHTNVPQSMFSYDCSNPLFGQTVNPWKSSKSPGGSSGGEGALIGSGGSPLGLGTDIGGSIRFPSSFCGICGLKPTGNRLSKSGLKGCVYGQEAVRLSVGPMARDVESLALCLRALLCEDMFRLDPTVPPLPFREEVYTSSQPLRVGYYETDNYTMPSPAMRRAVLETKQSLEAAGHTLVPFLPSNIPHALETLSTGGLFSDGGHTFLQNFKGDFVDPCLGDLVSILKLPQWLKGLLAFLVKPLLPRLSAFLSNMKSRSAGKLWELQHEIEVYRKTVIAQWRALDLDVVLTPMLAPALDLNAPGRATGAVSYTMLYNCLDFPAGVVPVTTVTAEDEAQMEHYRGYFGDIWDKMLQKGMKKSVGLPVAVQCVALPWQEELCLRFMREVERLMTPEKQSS
Experimental: as §1, §2

[2] = purified recombinant rat FAAH expressed in E. coli, 14C-oleamide hydrolysis, pH 9.0, 20-23° C.

SMILES | Ki [1, 2] [nM] | IC50 (rat FAAH) [nM] | IC50 (FAAH) [nM] | Ki ([1]; pH 9) [nM]
O=C(O)c1ccc(-c2cnc(C(=O)CCc3ccc(-c4ccccc4)cc3)o2)cn1 [Example 33, 5-[2-(3-Biphenyl-4-yl-propionyl)-oxazol-5-yl]-pyridine-2-carboxylic acid] | 44 | 44 | 580 | –
COC(=O)c1ccc(-c2cnc(C(=O)CCc3ccc(-c4ccccc4)cc3)o2)nc1 [Example 23, 6-[2-(3-Biphenyl-4-yl-propionyl)-oxazol-5-yl]-nicotinic acid methyl ester] | 2.2 | 8 | 5 | –
O=C(O)c1cccc(-c2cnc(C(=O)CCc3ccc(-c4ccccc4)cc3)o2)n1 [Example 24, 6-[2-(3-Biphenyl-4-yl-propionyl)-oxazol-5-yl]-pyridine-2-carboxylic acid] | 22 | 0.6 | 2 | –
NC(=O)c1cccc(-c2cnc(C(=O)CCc3ccc(-c4ccccc4)cc3)o2)n1 [Example 26, 6-[2-(3-Biphenyl-4-yl-propionyl)-oxazol-5-yl]-pyridine-2-carboxylic acid amide] | 1.2 | 0.5 | 2 | –
O=C(CCc1ccc(-c2ccccc2)cc1)c1ncc(-c2cccc(-c3nnn[nH]3)n2)o1 [Example 46, 3-Biphenyl-4-yl-1-{5-[6-(1H-tetrazol-5-yl)-pyridin-2-yl]-oxazol-2-yl}-propan-1-one] | 27 | 9 | 83 | –
O=C(O)c1cccc(-c2cnc(C(=O)CCc3ccc(Oc4ccccc4)cc3)o2)n1 [Example 14, 6-{2-[3-(4-Phenoxy-phenyl)-propionyl]-oxazol-5-yl}-pyridine-2-carboxylic acid] | 65 | 1.5 | 2.7 | –
O=C(CCc1ccc(-c2ccccc2)cc1)c1ncc(-c2cccnc2)o1 [Example 31, 3-Biphenyl-4-yl-1-(5-pyridin-3-yl-oxazol-2-yl)-propan-1-one] | 1.1 | 2 | 22 | –
COC(=O)c1cccc(-c2cnc(C(=O)CCc3ccc(COc4ccccc4)cc3)o2)n1 [Example 16, 6-{2-[3-(4-Phenoxymethyl-phenyl)-propionyl]-oxazol-5-yl}-pyridine-2-carboxylic acid methyl ester] | 2 | 1 | 1.2 | –
O=C(CCc1ccc(-c2ccccc2)cc1)c1ncc(-c2ccncc2)o1 [Example 30, 3-Biphenyl-4-yl-1-(5-pyridin-4-yl-oxazol-2-yl)-propan-1-one] | 2.3 | 3 | 16 | –
COC(=O)c1ccc(-c2cnc(C(=O)CCc3ccc(COc4ccccc4)cc3)o2)nc1 [Example 17] | 3.5 | 2.5 | 0.8 | –
CCOC(=O)c1cccc(-c2cnc(C(=O)CCc3ccc(-c4ccccc4)cc3)o2)n1 [Example 22, 6-[2-(3-Biphenyl-4-yl-propionyl)-oxazol-5-yl]-pyridine-2-carboxylic acid ethyl ester] | 3 | 2 | 2 | –
O=C(O)c1ccc(-c2cnc(C(=O)CCc3ccc(COc4ccccc4)cc3)o2)nc1 [Example 19, 6-{2-[3-(4-Phenoxymethyl-phenyl)-propionyl]-oxazol-5-yl}-nicotinic acid] | 4.6 | 2.5 | 0.8 | –
O=C(O)c1cccc(-c2cnc(C(=O)CCc3ccc(COc4ccccc4)cc3)o2)n1 [Example 18, 6-{2-[3-(4-Phenoxymethyl-phenyl)-propionyl]-oxazol-5-yl}-pyridine-2-carboxylic acid] | 6.1 | 0.5 | 1 | –
O=C(O)c1cccc(-c2cnc(C(=O)CCc3ccc(-c4ccc(CN5CCOCC5)cc4)cc3)o2)n1 [Example 41, 6-{2-[3-(4′-Morpholin-4-ylmethyl-biphenyl-4-yl)-propionyl]-oxazol-5-yl}-pyridine-2-carboxylic acid] | 150 | 3 | 9 | –
O=C(O)c1cc(-c2cnc(C(=O)CCc3ccc(-c4ccccc4)cc3)o2)ccn1 [Example 29, 4-[2-(3-Biphenyl-4-yl-propionyl)-oxazol-5-yl]-pyridine-2-carboxylic acid] | 50 | 3 | 7 | –
COC(=O)c1cccc(-c2cnc(C(=O)CCc3ccc(Oc4ccccc4)cc3)o2)n1 [Example 12, 6-{2-[3-(4-Phenoxy-phenyl)-propionyl]-oxazol-5-yl}-pyridine-2-carboxylic acid methyl ester] | 13 | 5 | 2 | –
COC(=O)c1cccc(-c2cnc(C(=O)CCc3ccc(-c4ccc(CN5CCOCC5)cc4)cc3)o2)n1 [Example 35, 6-{2-[3-(4′-Morpholin-4-ylmethyl-biphenyl-4-yl)-propionyl]-oxazol-5-yl}-pyridine-2-carboxylic acid methyl ester] | 31 | 2 | 21 | –
O=C(O)c1ccc(-c2cnc(C(=O)CCc3ccc(-c4ccccc4)cc3)o2)nc1 [Example 25, 6-[2-(3-Biphenyl-4-yl-propionyl)-oxazol-5-yl]-nicotinic acid] | – | 0.3 | 0.5 | 14
NC(=O)c1ccc(-c2cnc(C(=O)CCc3ccc(-c4ccccc4)cc3)o2)nc1 [Example 27, 6-[2-(3-Biphenyl-4-yl-propionyl)-oxazol-5-yl]-nicotinamide] | 1.5 | 0.5 | 0.4 | –
COC(=O)c1ccc(-c2cnc(C(=O)CCc3ccc(Oc4ccccc4)cc3)o2)nc1 [Example 13, 6-{2-[3-(4-Phenoxy-phenyl)-propionyl]-oxazol-5-yl}-nicotinic acid methyl ester] | 54 | 6 | 3 | –
COC(=O)c1ccc(-c2cnc(C(=O)CCc3ccc(-c4ccccc4)cc3)o2)cn1 [Example 32, 5-[2-(3-Biphenyl-4-yl-propionyl)-oxazol-5-yl]pyridine-2-carboxylic acid methyl ester] | 0.6 | 17 | 500 | –
O=C(O)c1ccc(-c2cnc(C(=O)CCc3ccc(Oc4ccccc4)cc3)o2)nc1 [Example 15, 6-{2-[3-(4-Phenoxy-phenyl)-propionyl]-oxazol-5-yl}-nicotinic acid] | 33 | 0.2 | 0.3 | –
N#Cc1cccc(-c2cnc(C(=O)CCc3ccc(-c4ccccc4)cc3)o2)n1 [Example 20, 6-[2-(3-Biphenyl-4-yl-propionyl)-oxazol-5-yl]-pyridine-2-carbonitrile] | 3 | 2 | 11 | –
O=C(O)c1cccc(-c2cnc(C(=O)CCc3ccc(-c4ccc(CN5CCCCC5)cc4)cc3)o2)n1 [Example 40, 6-{2-[3-(4′-Piperidin-1-ylmethyl-biphenyl-4-yl)-propionyl]-oxazol-5-yl}-pyridine-2-carboxylic acid] | 44 | – | – | –
O=C(O)c1cccc(-c2cnc(C(=O)CCc3ccc(-c4ccc(CN5CCSCC5)cc4)cc3)o2)n1 [Example 42, 6-{2-[3-(4′-Thiomorpholin-4-ylmethyl-biphenyl-4-yl)-propionyl]-oxazol-5-yl}-pyridine-2-carboxylic acid] | 28 | – | – | –
